Tests used:
human EP2 receptor = target: T1, human EP2 receptor (Homo sapiens, UniProt P43116); experiment: Binding ability to human EP receptors ([3H]PGE2 displacement), EP2; settings: membranes expressing human EP2; [3H]PGE2 3 nM; Cheng-Prusoff; read-out: pKi (M) EP2 (converted)
T1 construct: expressed in transfected cells
Procedure: (§1) Membranes were prepared from cells stably transfected with human EP receptor cDNA. In brief, cells were cultured to confluency, scraped from culture flasks, and centrifuged (800 g, 8 minutes, 4° C.). Cells were twice washed in ice cold homogenisation buffer containing 10 mMTris-HCl, 1 mM EDTA.2Na, 250 mM sucrose, 1 mM PMSF, 0.3 mM indomethacin, pH 7.4, homogenised and re-centrifuged as before. The supernatant was stored on ice and pellets re-homogenised and re-spun. Supernatants were pooled and centrifuged at 40000 g, 10 minutes, 4° C. Resultant membrane pellets were stored at −80° C. until use. For assay, membranes expressing human EP4, EP3, EP2 or EP1 receptors were incubated in Millipore (MHVBN45) plates containing assay buffer, radiolabelled [^3H]PGE2 and 0.1 to 10 000 nM concentrations of compounds. Incubations were performed at suitable temperatures and for suitable times to allow equilibrium to be reached. Non-specific binding was determined in the presence of 10 uM PGE2. Bound and free radiolabel was separated by vacuum manifold filtration using appropriate wash buffers, and bound radiolabel was determined by scintillation counting. Constituents of each of the buffers are included in table 1 below. […] Raven Press, New York, 2nd edition.

human EP4 receptor = target: T2, human EP4 receptor (Homo sapiens, UniProt P35408); experiment: Binding ability to human EP receptors ([3H]PGE2 displacement), EP4; settings: membranes expressing human EP4; [3H]PGE2 1 nM; Cheng-Prusoff; read-out: pKi (M) EP4 (converted)
T2 construct: expressed in transfected cells
T2 sequence (P35408 whole entry): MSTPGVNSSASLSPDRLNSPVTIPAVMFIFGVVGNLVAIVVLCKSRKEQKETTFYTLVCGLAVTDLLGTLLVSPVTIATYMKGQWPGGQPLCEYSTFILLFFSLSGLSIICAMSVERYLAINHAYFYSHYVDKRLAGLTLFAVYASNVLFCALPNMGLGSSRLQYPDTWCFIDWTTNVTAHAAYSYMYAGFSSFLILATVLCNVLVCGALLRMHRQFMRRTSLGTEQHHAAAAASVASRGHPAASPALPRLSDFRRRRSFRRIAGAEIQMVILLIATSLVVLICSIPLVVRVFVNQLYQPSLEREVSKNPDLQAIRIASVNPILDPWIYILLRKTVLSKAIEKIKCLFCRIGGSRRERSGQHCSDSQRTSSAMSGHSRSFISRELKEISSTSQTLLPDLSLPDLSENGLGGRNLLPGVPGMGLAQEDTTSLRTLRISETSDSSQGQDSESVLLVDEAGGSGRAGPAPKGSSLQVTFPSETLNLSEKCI
Procedure: as §1

human EP3 receptor = target: T3, human EP3 receptor (Homo sapiens, UniProt P43115); experiment: Binding ability to human EP receptors ([3H]PGE2 displacement), EP3; settings: membranes expressing human EP3; [3H]PGE2 2.5 nM; Cheng-Prusoff; read-out: pKi (M) EP3 (converted)
T3 construct: expressed in transfected cells
T3 sequence (P43115 1-390): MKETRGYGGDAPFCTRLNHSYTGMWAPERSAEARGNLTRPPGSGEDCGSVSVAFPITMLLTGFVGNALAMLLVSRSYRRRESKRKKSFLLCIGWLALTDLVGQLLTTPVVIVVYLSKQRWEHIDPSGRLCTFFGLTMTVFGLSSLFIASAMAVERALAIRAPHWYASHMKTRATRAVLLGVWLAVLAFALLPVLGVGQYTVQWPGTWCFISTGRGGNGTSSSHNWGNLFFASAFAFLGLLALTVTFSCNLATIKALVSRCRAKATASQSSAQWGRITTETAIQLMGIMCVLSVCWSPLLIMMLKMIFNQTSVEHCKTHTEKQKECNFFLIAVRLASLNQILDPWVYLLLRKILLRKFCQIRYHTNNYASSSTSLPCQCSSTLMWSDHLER
Procedure: as §1

[1] = target: T4, human EP2 prostanoid receptors (Homo sapiens, UniProt P43116); experiment: Agonist activity at recombinant human EP2 prostanoid receptors (cAMP in HEK-293 clones); assay type: cell-based; settings: for EC50: HEK-293 stably transfected with human EP2, cAMP accumulation, read-out: pEC50 EP2 (converted); for activity (EP2 part): functional classification at EP2
T4 construct: expressed in transfected cells; host or cells: HEK-293
T4 sequence (P43116 whole entry): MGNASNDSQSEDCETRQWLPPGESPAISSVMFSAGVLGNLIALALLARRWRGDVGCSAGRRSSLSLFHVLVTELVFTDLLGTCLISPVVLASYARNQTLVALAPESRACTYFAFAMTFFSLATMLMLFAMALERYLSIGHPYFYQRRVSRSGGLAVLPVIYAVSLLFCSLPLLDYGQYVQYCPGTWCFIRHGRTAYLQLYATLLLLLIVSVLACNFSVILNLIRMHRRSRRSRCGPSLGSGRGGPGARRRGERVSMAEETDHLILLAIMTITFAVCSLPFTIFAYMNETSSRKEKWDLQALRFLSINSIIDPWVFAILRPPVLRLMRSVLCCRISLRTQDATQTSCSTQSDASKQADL
Procedure: Culture media was Minimal essential media (MEM), supplemented with 10% foetal bovine serum, 100 U/ml penicillin, […] streptomycin, 2.5 μg/ml fungizone, 2mM glutamine. Cells were cultured to confluency (3-4 days) prior to use. Culture media was removed, and confluent cells washed three times in MEM. […] Cells were then stimulated by the addition of 25 μl of PGE2 or agonists prepared in assay buffer. In antagonist studies, cells were pre-incubated with compounds for 30 minutes prior to PGE2-mediated stimulation Plates were incubated for 15 min at 37° C., before termination of the reaction by the addition of 25 μl 1M HCl. The plate was then frozen at -20° C. overnight before determination of cAMP concentration. Stimulated cAMP levels were determined by radioligand displacement binding. In brief, plates were thawed rapidly in a waterbath, and the samples neutralised by the addition of 25 μl 1M NaOH. 30 μl was transferred to Millipore plates pre-coated with 0.5% Polyethylenimine (PEI). Samples were diluted by addition of 90 μl cAMP determination buffer (50 mM Tris, 5 mM EDTA, pH 7.0). […] 15 μl of 2 nM (final concentration) [^3H] cAMP, and 15 μl of 3'5'-cAMP protein kinase (8 μg/well final concentration) prepared in cAMP determination buffer containing 0.1% BSA, were added to each well. Plates were incubated on ice for 2 hours, before bound and free radiolabel were separated by vacuum filtration harvesting using the Millipore vacuum manifold, using ice cold water as the termination buffer. The sealing mat was removed from the Millipore plates, and the filters allowed to dry overnight. 50 μl Microscint 0 (Packard Bioscience) was added to each well, and the plate counted using the Micro-Beta Trilux topcount ^3H program. cAMP accumulation was determined from the standard curve, and values calculated in pmoles cAMP/well. Antagonists affinities (pA2 values) were determined assuming a slope of unity and the […]-Schild equation, where pA2=log [concentration ratio-1]-log[antagonist].

T1 sequence (P43116 whole entry): as above

Row | Ki (human EP2 receptor) | Ki (human EP4 receptor) | Ki (human EP3 receptor) | EC50 [1] | activity (EP2 part) [1] | SMILES
1 | < 1e-06 M | > 1e-05 M | > 1e-05 M | < 1 µM | EP2 agonist | O=C(O)Cc1cccc(NC(=O)c2ccc(-c3ccccc3)o2)c1 [Compound 10, (3-{[5-(phenyl)-furan-2-carbonyl]-amino}-phenyl)-acetic acid]
2 | < 1e-06 M | > 1e-05 M | > 1e-05 M | < 1 µM | EP2 agonist | COc1ccc(-c2ccc(C(=O)Nc3cccc(CC(=O)O)c3)o2)cc1 [Compound 12, (3-[(5-(4-Methoxy-phenyl)-furan-2-carbonyl)-amino]-phenyl)-acetic acid]
3 | < 1e-06 M | > 1e-05 M | > 1e-05 M | < 10 µM | EP2 agonist | CN(C)c1ccc(-c2ccc(C(=O)Nc3cccc(CC(=O)O)c3)o2)cc1 [Compound 14, (3-[(5-(4-Dimethylamino-phenyl)-furan-2-carbonyl)-amino]-phenyl)-acetic acid]
4 | < 1e-06 M | > 1e-05 M | > 1e-05 M | < 1 µM | EP2 agonist | COc1ccccc1-c1ccc(C(=O)Nc2cccc(CC(=O)O)c2)o1 [Compound 17, (3-{[5-(2-Methoxy-phenyl)-furan-2-carbonyl]-amino}-phenyl)-acetic acid]
5 | < 1e-06 M | > 1e-05 M | > 1e-05 M | < 1 µM | EP2 agonist | COc1cccc(-c2ccc(C(=O)Nc3cccc(CC(=O)O)c3)o2)c1 [Compound 18, (3-{[5-(3-Methoxy-phenyl)-furan-2-carbonyl]-amino}-phenyl)-acetic acid]
6 | < 1e-06 M | > 1e-05 M | > 1e-05 M | < 10 µM | EP2 agonist | CC(=O)c1cccc(-c2ccc(C(=O)Nc3cccc(CC(=O)O)c3)o2)c1 [Compound 19, (3-{[5-(3-Acetyl-phenyl)-furan-2-carbonyl]-amino}-phenyl)-acetic acid]
7 | < 1e-06 M | > 1e-05 M | > 1e-05 M | < 10 µM | EP2 agonist | CC(=O)c1ccc(-c2ccc(C(=O)Nc3cccc(CC(=O)O)c3)o2)cc1 [Compound 20, (3-{[5-(4-Acetyl-phenyl)-furan-2-carbonyl]-amino}-phenyl)-acetic acid]
8 | < 1e-06 M | > 1e-05 M | > 1e-05 M | < 1 µM | EP2 agonist | Cc1cccc(-c2ccc(C(=O)Nc3cccc(CC(=O)O)c3)o2)c1 [Compound 21, (3-{[5-(3-Methyl-phenyl)-furan-2-carbonyl]-amino}-phenyl)-acetic acid]
9 | < 1e-07 M | > 1e-05 M | > 1e-05 M | < 0.1 µM | EP2 agonist | O=C(O)Cc1cccc(NC(=O)c2ccc(-c3ccc(Cl)c(Cl)c3)o2)c1 [Compound 27, (3-{[5-(3,4-Dichloro-phenyl)-furan-2-carbonyl]-amino}-phenyl)-acetic acid]
10 | < 1e-05 M | > 1e-05 M | > 1e-05 M | < 1 µM | EP2 Agonist | O=C(O)Cc1cccc(NC(=O)c2ccc(-c3ccccc3Cl)o2)c1 [Compound 30, (3-{[5-(2-Chloro-phenyl)-furan-2-carbonyl]-amino}-phenyl)-acetic acid]
11 | < 1e-06 M | < 1e-06 M | > 1e-05 M | < 1 µM | EP2 agonist | O=C(O)Cc1cccc(NC(=O)c2ccc(-c3cccc4ccccc34)o2)c1 [Compound 31, {3-[(5-Naphthalen-1-yl-furan-2-carbonyl)-amino]-phenyl}-acetic acid]
12 | < 1e-06 M | < 1e-06 M | > 1e-05 M | < 1 µM | EP2 agonist | CC(C)c1cccc(-c2ccc(C(=O)Nc3cccc(CC(=O)O)c3)o2)c1 [Compound 34, (3-{[5-(3-Isopropyl-phenyl)-furan-2-carbonyl]-amino}-phenyl)-acetic acid]
13 | < 1e-06 M | > 1e-05 M | > 1e-05 M | < 0.1 µM | EP2 agonist | O=C(O)Cc1cccc(NC(=O)c2ccc(-c3ccc4c(c3)OCO4)o2)c1 [Compound 36, {3-[(5-Benzo[1,3]dioxol-5-yl-furan-2-carbonyl)-amino]-phenyl}-acetic acid]
14 | < 1e-06 M | > 1e-05 M | > 1e-05 M | < 1 µM | EP2 agonist | O=C(O)Cc1cccc(NC(=O)c2ccc(-c3cccc(Cl)c3Cl)o2)c1 [Compound 37, (3-{[5-(2,3-Dichloro-phenyl)-furan-2-carbonyl]-amino}-phenyl)-acetic acid]
15 | < 1e-07 M | > 1e-05 M | > 1e-05 M | < 0.1 µM | EP2 agonist | O=C(O)Cc1cccc(NC(=O)c2ccc(-c3cccc(Cl)c3)o2)c1 [Compound 39, (3-{[5-(3-Chloro-phenyl)-furan-2-carbonyl]-amino}-phenyl)-acetic acid]
16 | < 1e-06 M | > 1e-05 M | > 1e-05 M | < 0.1 µM | EP2 agonist | O=C(O)Cc1cccc(NC(=O)c2ccc(-c3ccc(Cl)cc3)o2)c1 [Compound 40, (3-{[5-(4-Chloro-phenyl)-furan-2-carbonyl]-amino}-phenyl)-acetic acid]
17 | < 1e-07 M | < 1e-06 M | > 1e-05 M | – | – | O=C(O)/C=C/c1cccc(SCc2csc(-c3ccccc3)n2)c1 [Compound 122, 3-[3-(2-Phenyl-thiazol-4-ylmethylsulfanyl)-phenyl]-acrylic acid]
18 | < 1e-06 M | > 1e-05 M | > 1e-05 M | – | – | O=C(O)/C=C/c1cccc(NC(=O)c2ccc(C34CC5CC(CC(C5)C3)C4)o2)c1 [Compound 123, 3-{3-[(5-Adamantan-1-yl-furan-2-carbonyl)-amino]-phenyl}-acrylic acid]
19 | < 1e-07 M | < 1e-06 M | > 1e-05 M | – | – | O=C(Nc1cccc(OCc2nnn[nH]2)c1)c1cccc(-c2ccccc2)n1 [Compound 174, 6-Phenyl-pyridine-2-carboxylic acid [3-(1H-tetrazol-5-ylmethoxy)-phenyl]-amide]
20 | < 1e-07 M | < 1e-07 M | > 1e-05 M | – | – | O=C(Nc1cccc(/C=C/c2nnn[nH]2)c1)c1cccc(-c2ccccc2)n1 [Compound 175, 6-Phenyl-pyridine-2-carboxylic acid {3-[2-(1H-tetrazol-5-yl)-vinyl]phenyl}-amide]
21 | < 1e-07 M | > 1e-05 M | > 1e-05 M | – | – | O=C(Nc1cccc(/C=C/c2nnn[nH]2)c1)c1cc(-c2ccccc2)ccc1F [Compound 176, 4-Fluoro-biphenyl-3-carboxylic acid {3-[2-(1H-tetrazol-5-yl)-vinyl]phenyl}-amide]

Reference: patent publication US7326732B2, “EP2 receptor agonists” (Pharmagene Laboratories Limited, priority 2004, dated 2008)
